The target in assay [1] is Macrophage metalloelastase (Homo sapiens, UniProt P39900). As to the kind of experiment: Inhibition of human recombinant MMP12 after 1 hr.
Assay [2] addresses 72 kDa type IV collagenase (Homo sapiens, UniProt P08253). The experiment in a line: Inhibition of human recombinant MMP2 after 1 hr.
Assay [3] addresses Matrix metalloproteinase-9 (Homo sapiens, UniProt P14780). As to the kind of experiment: Inhibition of human recombinant MMP9 after 1 hr.
In assay [4] the target is Stromelysin-1 (Homo sapiens, UniProt P08254). As to the kind of experiment: Inhibition of human recombinant MMP3 after 1 hr.
Sequence of Stromelysin-1 (P08254 whole entry): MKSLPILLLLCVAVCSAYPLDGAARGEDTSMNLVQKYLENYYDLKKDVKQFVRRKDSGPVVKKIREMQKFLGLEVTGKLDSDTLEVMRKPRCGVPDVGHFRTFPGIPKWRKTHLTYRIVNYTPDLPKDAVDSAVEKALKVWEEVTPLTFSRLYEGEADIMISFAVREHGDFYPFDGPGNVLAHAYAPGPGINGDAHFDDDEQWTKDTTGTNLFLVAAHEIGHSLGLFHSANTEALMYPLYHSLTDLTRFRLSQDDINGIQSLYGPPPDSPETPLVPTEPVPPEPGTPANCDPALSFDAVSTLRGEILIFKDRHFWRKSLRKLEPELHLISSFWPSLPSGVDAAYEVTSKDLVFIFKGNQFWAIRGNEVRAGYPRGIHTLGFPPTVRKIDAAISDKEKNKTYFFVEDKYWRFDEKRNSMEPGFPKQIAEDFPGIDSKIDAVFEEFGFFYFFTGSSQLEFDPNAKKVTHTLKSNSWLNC

Sequence of Matrix metalloproteinase-9 (P14780 whole entry): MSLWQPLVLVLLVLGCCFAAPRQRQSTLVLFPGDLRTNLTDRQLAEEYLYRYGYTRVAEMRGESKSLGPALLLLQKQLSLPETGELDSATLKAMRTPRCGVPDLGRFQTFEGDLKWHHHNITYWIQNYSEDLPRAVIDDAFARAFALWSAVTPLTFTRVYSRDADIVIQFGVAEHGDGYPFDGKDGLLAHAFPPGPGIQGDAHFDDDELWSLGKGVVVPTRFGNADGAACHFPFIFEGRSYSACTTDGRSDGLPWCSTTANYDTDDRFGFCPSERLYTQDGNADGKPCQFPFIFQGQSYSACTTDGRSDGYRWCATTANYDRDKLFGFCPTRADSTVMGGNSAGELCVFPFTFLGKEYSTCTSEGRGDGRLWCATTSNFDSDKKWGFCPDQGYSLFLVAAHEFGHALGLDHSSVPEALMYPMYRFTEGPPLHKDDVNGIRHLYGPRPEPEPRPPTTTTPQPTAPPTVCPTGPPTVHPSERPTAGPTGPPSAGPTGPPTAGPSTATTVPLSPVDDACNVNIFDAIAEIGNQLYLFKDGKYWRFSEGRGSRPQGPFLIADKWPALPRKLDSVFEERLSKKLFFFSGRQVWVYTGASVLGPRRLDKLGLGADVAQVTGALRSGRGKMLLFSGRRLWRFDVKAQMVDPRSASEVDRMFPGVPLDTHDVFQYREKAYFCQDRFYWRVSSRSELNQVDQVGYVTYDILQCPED
Sequence of Macrophage metalloelastase (P39900 whole entry): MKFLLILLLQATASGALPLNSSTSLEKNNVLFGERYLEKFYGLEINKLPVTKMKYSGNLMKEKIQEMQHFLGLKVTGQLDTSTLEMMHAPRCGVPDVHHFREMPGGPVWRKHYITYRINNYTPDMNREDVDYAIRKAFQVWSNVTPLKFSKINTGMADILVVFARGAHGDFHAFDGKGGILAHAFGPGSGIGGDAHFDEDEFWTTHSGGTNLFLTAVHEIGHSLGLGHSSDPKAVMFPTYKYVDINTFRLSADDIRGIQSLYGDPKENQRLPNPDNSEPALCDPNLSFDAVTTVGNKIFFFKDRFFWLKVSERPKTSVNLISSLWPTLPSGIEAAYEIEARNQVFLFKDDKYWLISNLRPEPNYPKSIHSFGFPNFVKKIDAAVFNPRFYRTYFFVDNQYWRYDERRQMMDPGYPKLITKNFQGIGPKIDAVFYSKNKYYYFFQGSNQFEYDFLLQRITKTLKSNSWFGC
Sequence of 72 kDa type IV collagenase (P08253 whole entry): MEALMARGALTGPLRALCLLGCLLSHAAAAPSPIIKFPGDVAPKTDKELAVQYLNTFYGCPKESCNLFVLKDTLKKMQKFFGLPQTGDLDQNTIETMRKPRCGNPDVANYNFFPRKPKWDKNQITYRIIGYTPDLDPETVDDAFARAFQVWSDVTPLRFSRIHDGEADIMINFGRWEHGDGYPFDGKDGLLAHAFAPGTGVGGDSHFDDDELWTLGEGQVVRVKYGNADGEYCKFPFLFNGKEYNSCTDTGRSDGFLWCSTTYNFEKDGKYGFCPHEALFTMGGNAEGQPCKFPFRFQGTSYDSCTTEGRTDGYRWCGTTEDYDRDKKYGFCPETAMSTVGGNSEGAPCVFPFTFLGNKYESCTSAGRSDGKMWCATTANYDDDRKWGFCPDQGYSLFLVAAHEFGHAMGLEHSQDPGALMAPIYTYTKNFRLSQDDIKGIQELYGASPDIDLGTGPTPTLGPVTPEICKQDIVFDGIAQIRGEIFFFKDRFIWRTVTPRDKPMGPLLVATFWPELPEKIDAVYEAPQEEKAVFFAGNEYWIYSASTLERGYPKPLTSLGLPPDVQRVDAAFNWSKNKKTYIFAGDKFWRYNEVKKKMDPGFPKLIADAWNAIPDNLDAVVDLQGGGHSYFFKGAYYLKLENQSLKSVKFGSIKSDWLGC

Regarding `O=P(O)(O)C(Cl)(Cl)P(=O)(O)O` [CLODRONIC ACID], the IC50 in assay [1] is 121 µM; in assay [2], 145 µM; in assay [3] it was 320 µM; in assay [4], 300 µM.

For orientation: IC50 means the point on the concentration scale where inhibition reaches its midpoint.

The values above are taken from ChEMBL document CHEMBL1145450, “Platinum complexes can inhibit matrix metalloproteinase activity: platinum-diethyl[(methylsulfinyl)methyl]phosphonate complexes as inhibitors of matrix metalloproteinases 2, 3, 9, and 12” (J Med Chem, 2007).
